The series can be described thus: Solubility in deuterium water. Type of series: physicochemical. The method, then:
For reference, the above nigerosyl adenosine was observed as a minor peak with a retention time of about 22 to 23 min between the elution peak of adenosine and that of 3′-glucosyladenosine other than the elution peaks of 5′- and 3′-glucosyladenosines and adenosine. When the fraction corresponding to such a minor peak was collected and subjected to mass spectrum (MS) analysis in usual manner, it was calculated to have a molecular weight of […] and judged to be a compound composed of two molecules of glucose bound to adenosine. Using the collected fraction and based on the chemical shift (see Table 13) of the carbons and protons of the fraction on MNR analysis under the following conditions, the substance contained in the fraction was identified as 5′-nigerosyladenosine (α-D-glucopyranosyl-(1→3)-α-D-glucopyranosyl-(1→5′)-adenosine; 5′-α-nigerosyladenosine). Since 5′-nigerosyladenosine dissolves in deuterium water in an amount of at least 6 w/v %, it has a higher solubility in aqueous media than 3′-glucosyladenosine. The carbon chemical shifts of adenosine and nigerose were obtained from the spectrum data base of organic compounds opened by The National Institute of Advanced Industrial Science and Technology (AIST) (SDBS; http://riodb01.ibase.aist.go.jp/sdbs/cgi-bin/direct_frame_top.cgi).

For `Nc1ncnc2c1ncn2[C@@H]1O[C@H](CO[C@H]2O[C@H](CO)[C@@H](O)[C@H](O[C@H]3O[C@H](CO)[C@@H](O)[C@H](O)[C@H]3O)[C@H]2O)[C@@H](O)[C@H]1O` [5′-nigerosyladenosine, α-D-glucopyranosyl-(1→3)-α-D-glucopyranosyl-(1→5′)-adenosine], the “Amount that dissolves in deuterium water” value was “at least 6 w/v %”.

For the origin of these results see patent US9492368B2, “External preparation for skin” (HAYASHIBARA CO., LTD., priority 2011, dated 2016).
